Test results from US20060247250A1 (TargeGen, Inc., priority 2005, published 2006).

Tests used:
Assay type in all cases: biochemical
human Yes = target: T1, human Yes (Homo sapiens, UniProt P07947); assay: Yes kinase inhibition, luciferase-based residual ATP (KinaseGlo); conditions: recombinant human Yes, ATP 3 μM, PTK2 substrate, 90 minutes at room temperature
T1 construct: purchased Panvera/Invitrogen
Experimental: (§1) The ability of compounds of the present invention to inhibit the activity of three groups of kinases was tested. Kinases tested included the src family (primarily src and yes), the angiogenic growth factors receptors (FGFR1, PDGFRb and VEGFR2) and the ephrin, EphB4. All kinase reactions were conducted in 96-well plates with a final reaction volume of 50 ul.
(§2) Recombinant human c-Src or Yes (28 ng/well, Panvera/Invitrogen, Madison Wis.), ATP (3 μM), a tyrosine kinase substrate (PTK2, 250 μM, Promega Corp., Madison Wis.), and test agents (at concentrations ranging from about 1 nM/l to about 100 μM/1), in the presence of Src kinase reaction buffer (Upstate USA, Lake Placid N.Y.). After reacting for about 90 minutes at room temperature, residual ATP was determined using a luciferase-based assay (KinaseGlo, Promega Corp.) as a measure of kinase activity. Data from four wells were then averaged and used to determine IC50 values for the test compounds (Prism software package, GraphPad Software, San Diego Calif.).

FGFR1 = target: T2, FGFR1 (Homo sapiens, UniProt P11362); assay: FGFR1 kinase assay, residual ATP luminescence; conditions: poly(glu4tyr), 2.5 uM ATP, 60 minutes at 37 C
T2 construct: purchased Panvera/Invitrogen
Experimental: as §1
(§3) FGFR1 and VEGFR2 kinase assays were similarly performed. FGFR1 (76 ng/well, Panvera/Invitrogen) was combined with 12.5 mg/ml poly(glu4tyr) (Sigma) and 2.5 uM ATP. VEGFR2 (14.1 U/well, Cell Signaling/ProQinase) was used with 0.3 mg/ml poly(glu4tyr) and 1.5 uM ATP. Both were incubated for 60 minutes at 37 C, and the residual ATP was measured via luminescence, per the procedure described above.

VEGFR2 = target: T3, VEGFR2 (Homo sapiens, UniProt P35968); assay: VEGFR2 kinase assay, residual ATP luminescence; conditions: VEGFR2, poly(glu4tyr), 1.5 uM ATP, 60 minutes at 37 C; read-out: Vegfr IC50
T3 construct: purchased Cell Signaling/ProQinase
Experimental: as §1, §3

PDGFRb = target: T4, PDGFRb (Homo sapiens, UniProt P09619); assay: PDGFRb kinase assay, residual ATP luminescence; conditions: PTK2 peptide, 500 nM ATP, 60 minutes at 37 C; read-out: Pdgfrβ IC50
T4 construct: purchased Panvera/Invitrogen
Experimental: as §1
PDGFRb (0.16 ug/well, Panvera/Invitrogen) 500 nM ATP and the PTK2 peptide (700 uM) were combined with compound and reaction buffer as noted above for src. The reaction was incubated for 60 minutes at 37 C, and the residual ATP concentration was determined using the luciferase-based technique also noted above.

EphB4 = target: T5, EphB4 (Homo sapiens, UniProt P54760); assay: EphB4 kinase assay, residual ATP luminescence; conditions: poly(glu4tyr), 6 uM ATP, 60 minutes at 37 C
T5 construct: purchased Upstate
T5 sequence (P54760 16-987): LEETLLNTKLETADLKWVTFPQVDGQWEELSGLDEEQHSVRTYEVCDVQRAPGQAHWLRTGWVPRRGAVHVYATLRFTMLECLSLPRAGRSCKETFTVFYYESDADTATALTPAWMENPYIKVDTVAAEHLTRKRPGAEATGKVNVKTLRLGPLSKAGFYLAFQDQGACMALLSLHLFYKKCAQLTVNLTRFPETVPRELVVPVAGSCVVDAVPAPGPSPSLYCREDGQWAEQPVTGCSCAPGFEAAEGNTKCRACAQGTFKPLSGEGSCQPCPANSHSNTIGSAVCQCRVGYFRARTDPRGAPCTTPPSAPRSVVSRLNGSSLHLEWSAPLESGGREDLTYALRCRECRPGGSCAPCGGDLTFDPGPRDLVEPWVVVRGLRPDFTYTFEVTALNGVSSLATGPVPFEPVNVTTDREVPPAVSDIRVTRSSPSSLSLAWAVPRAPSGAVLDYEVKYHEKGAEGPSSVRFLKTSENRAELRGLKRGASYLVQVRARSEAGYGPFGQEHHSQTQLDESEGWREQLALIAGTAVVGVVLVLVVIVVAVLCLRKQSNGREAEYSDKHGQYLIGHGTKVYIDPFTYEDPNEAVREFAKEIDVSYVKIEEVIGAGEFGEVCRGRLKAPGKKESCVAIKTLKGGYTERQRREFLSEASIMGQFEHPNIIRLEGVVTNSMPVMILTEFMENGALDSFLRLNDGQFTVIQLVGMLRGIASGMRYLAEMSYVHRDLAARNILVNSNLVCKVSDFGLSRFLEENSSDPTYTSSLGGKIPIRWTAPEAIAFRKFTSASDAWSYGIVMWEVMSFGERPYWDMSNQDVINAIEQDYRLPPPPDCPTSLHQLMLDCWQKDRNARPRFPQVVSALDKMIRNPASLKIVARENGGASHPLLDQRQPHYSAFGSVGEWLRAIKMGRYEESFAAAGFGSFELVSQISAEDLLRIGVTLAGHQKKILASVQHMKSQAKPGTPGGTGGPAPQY
Experimental: as §1
EphB4 kinase activity was similarly measured, using the luciferase-based technique described above. 28.9 mU/well EphB4 (Upstate) was reacted with 1 mg/ml poly(glu4tyr), 6 uM ATP and test reagents. The reaction was incubated for 60 minutes at 37 C and the residual ATP concentration was measured.

human c-Src = target: T6, human c-Src (Homo sapiens, UniProt P12931); assay: Src kinase inhibition, luciferase-based residual ATP (KinaseGlo); conditions: recombinant human c-Src, ATP 3 μM, PTK2 substrate, 90 minutes at room temperature
T6 construct: purchased Panvera/Invitrogen
Experimental: as §1, §2

T2 sequence (P11362 22-822, species assumed): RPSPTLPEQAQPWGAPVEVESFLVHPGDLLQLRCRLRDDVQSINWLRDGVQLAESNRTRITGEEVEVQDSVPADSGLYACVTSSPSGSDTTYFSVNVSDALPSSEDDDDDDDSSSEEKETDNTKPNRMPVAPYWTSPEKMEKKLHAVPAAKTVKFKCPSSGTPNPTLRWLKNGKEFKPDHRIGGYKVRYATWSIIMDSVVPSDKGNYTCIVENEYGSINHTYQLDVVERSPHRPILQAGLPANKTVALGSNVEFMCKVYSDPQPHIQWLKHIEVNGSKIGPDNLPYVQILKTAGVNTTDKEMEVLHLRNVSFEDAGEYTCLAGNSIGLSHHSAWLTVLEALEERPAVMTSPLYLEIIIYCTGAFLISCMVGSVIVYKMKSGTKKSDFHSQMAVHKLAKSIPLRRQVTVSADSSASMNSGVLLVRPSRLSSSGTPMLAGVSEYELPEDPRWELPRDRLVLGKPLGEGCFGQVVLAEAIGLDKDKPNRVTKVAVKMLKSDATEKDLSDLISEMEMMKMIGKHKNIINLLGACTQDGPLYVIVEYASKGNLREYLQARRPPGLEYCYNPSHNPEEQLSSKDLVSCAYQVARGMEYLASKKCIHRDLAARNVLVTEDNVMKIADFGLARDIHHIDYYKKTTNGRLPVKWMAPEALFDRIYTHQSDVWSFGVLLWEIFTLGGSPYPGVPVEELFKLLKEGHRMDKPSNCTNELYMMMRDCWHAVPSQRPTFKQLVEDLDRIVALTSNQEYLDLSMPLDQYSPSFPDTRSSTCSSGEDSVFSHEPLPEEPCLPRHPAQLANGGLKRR
T3 sequence (P35968 20-1356, species assumed): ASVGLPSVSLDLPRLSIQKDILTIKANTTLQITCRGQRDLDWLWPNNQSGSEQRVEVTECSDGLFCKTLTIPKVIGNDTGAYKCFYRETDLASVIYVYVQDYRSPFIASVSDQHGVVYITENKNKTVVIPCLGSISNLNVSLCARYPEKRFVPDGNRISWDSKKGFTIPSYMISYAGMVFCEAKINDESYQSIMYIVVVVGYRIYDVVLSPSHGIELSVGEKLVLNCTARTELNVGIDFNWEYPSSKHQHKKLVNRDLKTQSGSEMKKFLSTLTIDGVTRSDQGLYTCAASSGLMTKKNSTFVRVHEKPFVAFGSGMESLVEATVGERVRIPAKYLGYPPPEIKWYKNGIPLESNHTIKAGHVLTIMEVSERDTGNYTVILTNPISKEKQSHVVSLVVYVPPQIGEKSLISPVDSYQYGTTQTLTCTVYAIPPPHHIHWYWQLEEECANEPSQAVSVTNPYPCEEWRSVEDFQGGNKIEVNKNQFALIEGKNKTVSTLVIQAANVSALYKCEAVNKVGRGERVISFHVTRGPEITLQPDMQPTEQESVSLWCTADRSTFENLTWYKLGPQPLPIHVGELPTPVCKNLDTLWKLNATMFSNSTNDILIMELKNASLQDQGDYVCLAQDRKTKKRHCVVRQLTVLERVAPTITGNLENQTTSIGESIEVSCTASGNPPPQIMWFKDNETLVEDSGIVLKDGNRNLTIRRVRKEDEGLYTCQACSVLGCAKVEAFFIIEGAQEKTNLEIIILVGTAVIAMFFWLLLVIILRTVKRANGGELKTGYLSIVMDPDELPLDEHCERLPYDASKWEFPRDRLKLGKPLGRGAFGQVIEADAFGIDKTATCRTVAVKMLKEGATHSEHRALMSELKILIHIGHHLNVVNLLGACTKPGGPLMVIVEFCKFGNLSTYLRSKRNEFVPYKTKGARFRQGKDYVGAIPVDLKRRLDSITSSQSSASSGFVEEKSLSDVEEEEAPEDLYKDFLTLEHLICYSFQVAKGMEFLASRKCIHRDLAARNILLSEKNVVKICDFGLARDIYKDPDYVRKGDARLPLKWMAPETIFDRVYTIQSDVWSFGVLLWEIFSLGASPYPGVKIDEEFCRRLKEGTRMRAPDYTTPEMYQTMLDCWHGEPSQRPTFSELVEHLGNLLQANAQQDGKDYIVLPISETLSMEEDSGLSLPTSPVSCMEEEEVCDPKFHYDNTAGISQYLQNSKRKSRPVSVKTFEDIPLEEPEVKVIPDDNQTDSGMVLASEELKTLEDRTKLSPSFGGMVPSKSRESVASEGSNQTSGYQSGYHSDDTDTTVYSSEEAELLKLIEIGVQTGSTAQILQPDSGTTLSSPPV
T4 sequence (P09619 33-1106, species assumed): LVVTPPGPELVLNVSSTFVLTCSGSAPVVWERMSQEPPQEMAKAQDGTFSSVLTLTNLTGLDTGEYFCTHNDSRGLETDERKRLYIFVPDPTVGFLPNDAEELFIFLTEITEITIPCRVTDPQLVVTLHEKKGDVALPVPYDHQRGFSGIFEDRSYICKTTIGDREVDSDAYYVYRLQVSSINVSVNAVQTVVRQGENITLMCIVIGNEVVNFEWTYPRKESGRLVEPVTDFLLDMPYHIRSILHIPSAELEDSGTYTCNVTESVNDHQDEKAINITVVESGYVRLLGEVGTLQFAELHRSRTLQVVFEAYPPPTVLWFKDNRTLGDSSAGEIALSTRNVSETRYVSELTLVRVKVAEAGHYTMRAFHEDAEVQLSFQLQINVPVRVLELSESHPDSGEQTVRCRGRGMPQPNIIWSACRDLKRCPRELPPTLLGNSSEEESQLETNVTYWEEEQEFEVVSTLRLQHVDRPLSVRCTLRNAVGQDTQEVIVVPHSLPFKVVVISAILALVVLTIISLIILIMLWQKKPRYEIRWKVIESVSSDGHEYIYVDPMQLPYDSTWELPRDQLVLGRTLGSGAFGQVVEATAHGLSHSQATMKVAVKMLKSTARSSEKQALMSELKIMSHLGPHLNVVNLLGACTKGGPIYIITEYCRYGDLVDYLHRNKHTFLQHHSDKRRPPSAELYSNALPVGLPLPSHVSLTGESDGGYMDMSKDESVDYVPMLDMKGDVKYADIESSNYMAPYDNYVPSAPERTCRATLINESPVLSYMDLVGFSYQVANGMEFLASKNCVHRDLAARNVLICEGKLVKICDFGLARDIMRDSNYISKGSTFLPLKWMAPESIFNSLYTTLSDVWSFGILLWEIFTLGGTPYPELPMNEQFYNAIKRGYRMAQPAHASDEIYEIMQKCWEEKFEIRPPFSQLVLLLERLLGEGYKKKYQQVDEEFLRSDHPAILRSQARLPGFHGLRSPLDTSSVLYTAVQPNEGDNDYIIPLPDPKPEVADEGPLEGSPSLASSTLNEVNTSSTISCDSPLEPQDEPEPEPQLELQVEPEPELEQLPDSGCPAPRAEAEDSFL
T6 sequence (P12931 whole entry): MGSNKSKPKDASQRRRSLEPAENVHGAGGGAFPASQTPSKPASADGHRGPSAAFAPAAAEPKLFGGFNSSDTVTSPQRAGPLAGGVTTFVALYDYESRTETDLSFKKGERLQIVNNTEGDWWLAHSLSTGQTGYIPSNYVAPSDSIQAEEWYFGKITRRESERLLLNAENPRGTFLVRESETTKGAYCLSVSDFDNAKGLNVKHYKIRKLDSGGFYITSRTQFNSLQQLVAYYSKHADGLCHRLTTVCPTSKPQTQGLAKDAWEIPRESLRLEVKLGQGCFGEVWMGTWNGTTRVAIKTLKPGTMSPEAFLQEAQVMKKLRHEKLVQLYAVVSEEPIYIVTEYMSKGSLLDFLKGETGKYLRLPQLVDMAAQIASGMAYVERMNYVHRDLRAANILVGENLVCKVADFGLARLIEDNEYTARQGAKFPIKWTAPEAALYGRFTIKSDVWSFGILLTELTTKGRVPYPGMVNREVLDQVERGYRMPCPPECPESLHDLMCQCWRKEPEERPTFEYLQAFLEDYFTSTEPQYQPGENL
T1 sequence (P07947 whole entry): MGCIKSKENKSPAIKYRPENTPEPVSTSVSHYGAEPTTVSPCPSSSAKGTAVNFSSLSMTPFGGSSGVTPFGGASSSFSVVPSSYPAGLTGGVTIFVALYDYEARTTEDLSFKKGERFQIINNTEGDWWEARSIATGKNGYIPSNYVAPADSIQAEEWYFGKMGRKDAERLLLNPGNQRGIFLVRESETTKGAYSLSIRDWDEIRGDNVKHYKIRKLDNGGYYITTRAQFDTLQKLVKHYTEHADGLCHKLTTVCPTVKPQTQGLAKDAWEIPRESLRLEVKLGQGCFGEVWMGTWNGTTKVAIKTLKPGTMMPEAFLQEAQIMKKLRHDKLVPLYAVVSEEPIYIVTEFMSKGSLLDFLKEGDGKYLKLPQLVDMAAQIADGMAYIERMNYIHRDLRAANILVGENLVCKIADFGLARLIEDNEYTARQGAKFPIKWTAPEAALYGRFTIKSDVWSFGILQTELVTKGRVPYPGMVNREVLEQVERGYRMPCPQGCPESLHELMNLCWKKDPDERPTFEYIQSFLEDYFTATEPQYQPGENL

Row | Compound | IC50 (human Yes) [nM] | IC50 (FGFR1) [nM] | IC50 (VEGFR2) [nM] | IC50 (PDGFRb) [nM] | IC50 (EphB4) [nM] | IC50 (human c-Src) [nM]
1 | O=C(NCCN1CCCC1)c1csc(Nc2ncc(NC(=O)c3cc(O)ccc3Cl)cn2)n1 [drawing 209] | 19 | 2100 | 614 |  |  | 
2 | O=C(Nc1cnc(Nc2ccc(CCCN3CCCC3)cc2)nc1)c1c(Cl)cccc1Cl | 26 | > 10000 | > 10000 | 206 |  | 
3 | Clc1cccc(Cl)c1CNc1cnc(Nc2ccc(OCCN3CCCC3)cc2)nc1 | 40 | 5280 | 907 | 51 |  | 
4 | O=C(Nc1cnc(Nc2cccc(OCCN3CCCC3)c2)nc1)c1cc(O)ccc1Cl [drawing 201] | 10 | 7200 | 1260 | 13 | 109 | 
5 | CC(C)N(CCO)C(=O)c1ccc(Nc2ncc(NC(=O)c3cc(O)ccc3Cl)cn2)cc1 [drawing 210] | 6 | > 10000 | > 10000 | 138 | 190 | 
6 | O=C(Nc1cnc(Nc2ccc(C(=O)N3CCNCC3)cc2)nc1)c1cc(O)ccc1Cl [drawing 205] | 1.9 | 5400 | 310 |  |  | 
7 | Clc1cccc(Cl)c1CNc1cnc(Nc2cccc(OCCN3CCCC3)c2)nc1 [drawing 211] | 6 | > 10000 | 138 |  | 190 | 
8 | O=C(Nc1cnc(Nc2cccc(OCCN3CCCC3)c2)nc1)c1c(Cl)cccc1Cl [drawing 202] | 8 | > 10000 | > 10000 | 181 | 434 | 
9 | O=C(NCCN1CCCC1)c1ccc(Nc2ncc(NC(=O)c3cc(O)ccc3Cl)cn2)cn1 [drawing 204] | 3.1 | 1000 | 870 | 13 | 89 | 
10 | O=C(Nc1cnc(Nc2ccc(S(=O)(=O)NCCN3CCCC3)cc2)nc1)c1cc(O)ccc1Cl [drawing 203] | 0.8 | 5200 | 322 |  |  | 
11 | O=C(Nc1cnc(Nc2ccc(S(=O)(=O)CCCN3CCCC3)cc2)nc1)c1cc(O)ccc1Cl [drawing 206] | 3.7 | 7500 | 358 |  |  | 
12 | O=C(NCCN1CCCC1)c1ccc(Nc2ncc(NC(=O)c3cc(O)ccc3Cl)cn2)cc1 [drawing 208] | 4.4 | 8200 | 257 | 6.3 | 59 | 
13 | CN1CCN(C(=O)c2ccc(Nc3ncc(NC(=O)c4cc(O)ccc4Cl)cn3)cc2)CC1 [drawing 207] | 10 | 9400 | 360 |  |  | 
14 | CC(C)N(CCO)C(=O)c1ccc(Nc2ncc(NC(=O)c3c(Cl)cccc3Cl)cn2)cc1 [XXI, 2,6-Dichloro-N-(2-{4-[(2-hydroxy-ethyl)-isopropyl-carbamoyl]-phenylamino}-pyrimidin-5-yl)-benzamide] |  |  |  |  |  | 286
15 | O=C(Nc1cnc(Nc2cccc(OCCN3CCCC3)c2)nc1)c1c(Cl)cccc1Cl [XLIV, N-(2-(3-(2-(Pyrrolidin-1-yl)ethoxy)phenylamino)pyrimidin-5-yl)-2,6-dichlorobenzamide] |  |  |  |  |  | 25
16 | Cc1cccc(C)c1C(=O)Nc1cnc(Nc2ccc(C(=O)NCCN3CCCC3)cc2)nc1 [XXIX, 2,6-Dimethyl-N-{2-[4-(2-pyrrolidin-1-yl-ethylcarbamoyl)-phenylamino]-pyrimidin-5-yl}-benzamide] |  |  |  |  |  | 117
17 | Cc1cccc(C)c1C(=O)Nc1cnc(Nc2ccc(C(=O)N3CCN(C)CC3)cc2)nc1 [XV, 2,6-Dimethyl-N-{2-[4-(4-methyl-piperazine-1-carbonyl)-phenylamino]-pyrimidin-5-yl}-benzamide] |  |  |  |  |  | 223
18 | O=C(Nc1cnc(Nc2ccc(C(=O)N3CCN(CCO)CC3)nc2)nc1)c1cc(O)ccc1Cl [XLVIII, 2-Chloro-5-hydroxy-N-(2-{6-[4-(2-hydroxy-ethyl)-piperazine-1-carbonyl]-pyridin-3-ylamino}-pyrimidin-5-yl)-benzamide] |  |  |  |  |  | 53
19 | CN1CCN(S(=O)(=O)c2ccc(Nc3ncc(NC(=O)c4c(Cl)cccc4Cl)cn3)cc2)CC1 [V, 2,6-Dichloro-N-{2-[4-(4-methyl-piperazine-1-sulfonyl)-phenylamino]-pyrimidin-5-yl}-benzamide] |  |  |  |  |  | 667
20 | Cc1c(O)cccc1C(=O)Nc1cnc(Nc2ccc(C(=O)NCCN3CCCC3)cc2)nc1 [XXVII, 3-Hydroxy-2-methyl-N-{2-[4-(2-pyrrolidin-1-yl-ethylcarbamoyl)-phenylamino]-pyrimidin-5-yl}-benzamide] |  |  |  |  |  | 216
21 | O=C(NCCN1CCCC1)c1ccc(Nc2ncc(NC(=O)c3c(Cl)cccc3Cl)cn2)cn1 [VIII, 5-[5-(2,6-Dichloro-benzoylamino)-pyrimidin-2-ylamino]-pyridine-2-carboxylic acid (2-pyrrolidin-1-yl-ethyl)-amide] |  |  |  |  |  | 129
22 | O=C(Nc1cnc(Nc2ccc(N3CCN(CCO)CC3)nc2)nc1)c1c(Cl)cccc1Cl [XLIX, 2,6-Dichloro-N-(2-{6-[4-(2-hydroxy-ethyl)-piperazin-1-yl]-pyridin-3-ylamino}-pyrimidin-5-yl)-benzamide] |  |  |  |  |  | 54
23 | O=C(Nc1cnc(Nc2ccc(OCCN3CCCC3)cc2)nc1)c1cc(O)ccc1Cl [drawing 200] | 26 | 20000 | 564 | 20 | 200 | 
24 | Oc1ccc(Cl)c(CNc2cnc(Nc3ccc(OCCN4CCCC4)cc3)nc2)c1 [XLI, 3-((2-(4-(2-(Pyrrolidin-1-yl)ethoxy)phenylamino)pyrimidin-5-ylamino)methyl)-4-chlorophenol] |  |  |  |  |  | 55
25 | Clc1cccc(Cl)c1CNc1cnc(Nc2cccc(OCCN3CCCC3)c2)nc1 [LII, N′-(2,6-Dichloro-benzyl)-N-[3-(2-pyrrolidin-1-yl-ethoxy)-phenyl]-pyrimidine-2,5-diamine] |  |  |  |  |  | 60
26 | O=C(Nc1cnc(Nc2ccc(S(=O)(=O)NCCN3CCCC3)cc2)nc1)c1c(Cl)cccc1Cl [III, 2,6-Dichloro-N-{2-[4-(2-pyrrolidin-1-yl-ethylsulfamoyl)-phenylamino]-pyrimidin-5-yl}-benzamide] |  |  |  |  |  | 73
